Data as given in PMC11207335, “In Vitro Metabolism and Transport Characteristics of Zastaprazan” (Pharmaceutics, 2024).
Where two headings read alike, the source gives them in different places.

How the values were obtained:
[1] = molecular target: MATE2K (Homo sapiens, UniProt Q86VL8); test: Uptake into HEK293 cells expressing MATE2K; settings: for Uptake Rate / Fold-Change: 6 μM, HEK293-MATE2K; for Substrate: MATE2K; for Fold-Change: vs HEK293-mock
[2] = molecular target: T1, OATP1B1 (Homo sapiens, UniProt Q9Y6L6); test: Uptake into HEK293 cells expressing OATP1B1; settings: for Uptake Rate / Fold-Change: 6 μM; for Substrate: OATP1B1; for Fold-Change: vs HEK293-mock
T1 sequence (Q9Y6L6 1-691): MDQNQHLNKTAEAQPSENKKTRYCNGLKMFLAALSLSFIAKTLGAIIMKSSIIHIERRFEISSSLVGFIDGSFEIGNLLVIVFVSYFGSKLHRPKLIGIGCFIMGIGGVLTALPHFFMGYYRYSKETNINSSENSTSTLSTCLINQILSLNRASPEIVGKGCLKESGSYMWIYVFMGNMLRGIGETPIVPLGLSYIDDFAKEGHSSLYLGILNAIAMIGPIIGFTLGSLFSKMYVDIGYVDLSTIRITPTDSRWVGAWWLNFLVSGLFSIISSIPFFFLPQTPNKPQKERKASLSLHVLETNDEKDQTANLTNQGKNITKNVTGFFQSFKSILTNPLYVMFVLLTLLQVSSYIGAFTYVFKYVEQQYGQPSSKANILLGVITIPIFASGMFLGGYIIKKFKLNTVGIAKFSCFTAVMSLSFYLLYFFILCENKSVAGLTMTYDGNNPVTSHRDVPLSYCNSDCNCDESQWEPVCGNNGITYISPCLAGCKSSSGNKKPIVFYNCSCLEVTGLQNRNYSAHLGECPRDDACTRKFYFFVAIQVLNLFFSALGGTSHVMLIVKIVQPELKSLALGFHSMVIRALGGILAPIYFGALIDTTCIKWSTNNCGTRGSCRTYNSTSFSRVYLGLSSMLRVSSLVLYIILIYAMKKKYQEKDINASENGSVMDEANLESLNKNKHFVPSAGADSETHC

[3] = molecular target: T2, P-gp (Homo sapiens, UniProt P08183); test: Permeability in LLC-PK1-P-gp cells; format: in vitro ADME; settings: for Substrate: P-gp; for Papp A→B at 1 h, 4 µM / Papp B→A at 1 h, 4 µM / efflux ratio at 1 h, 4 µM: pig, LLC-PK1-P-gp; for efflux ratio at 1 h, 4 µM: read-out: ER
T2 construct: host or cells: LLC-PK1 (porcine kidney cells)
Procedure: LLC-PK1-P-gp or BCRP cells were seeded on collagen-coated 24-transwell membranes at a density of 2.5 × 10^5 cells/mL and maintained at 37 °C in a humidified atmosphere with 5% CO2/95% air for 5 days in Medium 199 supplemented with 10% […], 50 μg/mL of gentamycin, and 50 μg/mL of hygromycin. The culture medium was replaced every other day. On the day of the experiment, the growth medium was discarded, and the attached cells were washed with prewarmed HBSS (pH 7.4) and preincubated with HBSS for 20 min at 37 °C. […] Aliquots (0.1 mL) in the apical side were transferred to clean tubes every 15 min for 1 h and replaced with an equal volume of fresh HBSS.
LLC-PK1-P-gp or BCRP cells were seeded on collagen-coated 24-transwell membranes at a density of 2.5 × 10^5 cells/mL and cultured for 5 days. The growth medium was discarded on the day of the experiment, and the attached cells were washed with prewarmed HBSS (pH 7.4) and preincubated with HBSS for 20 min at 37 °C. […] Aliquots (0.1 mL) in the apical side were transferred to clean tubes every 15 min for 1 h and replaced with an equal volume of fresh HBSS. Aliquots (30 μL) of each sample were vortex-mixed with 90 μL of IS solution for 1 min, and then centrifugation was performed at 13,500 rpm at 4 °C for 5 min. Aliquots (5 μL) of the supernatant were injected into the LC-MS/MS for analysis.
The permeability (Papp) was calculated from the following equation [23, 24]: Papp(cm/s)=transport ratenmol/s/JP−1366 or M1 concentration (μM)×surface area of membrane (cm^2)

[4] = molecular target: T3, OATP1B3 (Homo sapiens, UniProt Q9NPD5); test: Uptake into HEK293 cells expressing OATP1B3; settings: for Uptake Rate / Fold-Change: 6 μM; for Substrate: OATP1B3; for Fold-Change: vs HEK293-mock
T3 sequence (Q9NPD5 1-702): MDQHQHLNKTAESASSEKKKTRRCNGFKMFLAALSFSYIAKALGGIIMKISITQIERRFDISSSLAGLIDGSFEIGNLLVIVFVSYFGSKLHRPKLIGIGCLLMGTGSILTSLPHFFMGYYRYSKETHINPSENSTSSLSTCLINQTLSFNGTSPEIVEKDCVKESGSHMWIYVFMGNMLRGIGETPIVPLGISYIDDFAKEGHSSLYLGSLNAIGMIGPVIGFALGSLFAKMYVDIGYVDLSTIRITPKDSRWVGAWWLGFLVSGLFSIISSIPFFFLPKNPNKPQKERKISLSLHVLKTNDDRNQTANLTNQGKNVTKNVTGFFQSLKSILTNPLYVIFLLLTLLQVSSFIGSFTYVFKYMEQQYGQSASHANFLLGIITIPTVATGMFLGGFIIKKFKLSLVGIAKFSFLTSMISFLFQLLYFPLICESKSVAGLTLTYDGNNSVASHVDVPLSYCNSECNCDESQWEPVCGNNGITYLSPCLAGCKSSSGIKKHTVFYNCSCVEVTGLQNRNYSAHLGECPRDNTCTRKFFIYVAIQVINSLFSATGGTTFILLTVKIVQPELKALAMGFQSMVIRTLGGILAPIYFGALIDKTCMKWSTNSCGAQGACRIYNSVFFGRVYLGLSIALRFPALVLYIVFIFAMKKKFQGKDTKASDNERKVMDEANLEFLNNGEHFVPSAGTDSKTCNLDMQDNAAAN

[5] = pH 7.4, with CsA 20 μM, CsA 20 μM

T2 sequence (P08183 whole entry): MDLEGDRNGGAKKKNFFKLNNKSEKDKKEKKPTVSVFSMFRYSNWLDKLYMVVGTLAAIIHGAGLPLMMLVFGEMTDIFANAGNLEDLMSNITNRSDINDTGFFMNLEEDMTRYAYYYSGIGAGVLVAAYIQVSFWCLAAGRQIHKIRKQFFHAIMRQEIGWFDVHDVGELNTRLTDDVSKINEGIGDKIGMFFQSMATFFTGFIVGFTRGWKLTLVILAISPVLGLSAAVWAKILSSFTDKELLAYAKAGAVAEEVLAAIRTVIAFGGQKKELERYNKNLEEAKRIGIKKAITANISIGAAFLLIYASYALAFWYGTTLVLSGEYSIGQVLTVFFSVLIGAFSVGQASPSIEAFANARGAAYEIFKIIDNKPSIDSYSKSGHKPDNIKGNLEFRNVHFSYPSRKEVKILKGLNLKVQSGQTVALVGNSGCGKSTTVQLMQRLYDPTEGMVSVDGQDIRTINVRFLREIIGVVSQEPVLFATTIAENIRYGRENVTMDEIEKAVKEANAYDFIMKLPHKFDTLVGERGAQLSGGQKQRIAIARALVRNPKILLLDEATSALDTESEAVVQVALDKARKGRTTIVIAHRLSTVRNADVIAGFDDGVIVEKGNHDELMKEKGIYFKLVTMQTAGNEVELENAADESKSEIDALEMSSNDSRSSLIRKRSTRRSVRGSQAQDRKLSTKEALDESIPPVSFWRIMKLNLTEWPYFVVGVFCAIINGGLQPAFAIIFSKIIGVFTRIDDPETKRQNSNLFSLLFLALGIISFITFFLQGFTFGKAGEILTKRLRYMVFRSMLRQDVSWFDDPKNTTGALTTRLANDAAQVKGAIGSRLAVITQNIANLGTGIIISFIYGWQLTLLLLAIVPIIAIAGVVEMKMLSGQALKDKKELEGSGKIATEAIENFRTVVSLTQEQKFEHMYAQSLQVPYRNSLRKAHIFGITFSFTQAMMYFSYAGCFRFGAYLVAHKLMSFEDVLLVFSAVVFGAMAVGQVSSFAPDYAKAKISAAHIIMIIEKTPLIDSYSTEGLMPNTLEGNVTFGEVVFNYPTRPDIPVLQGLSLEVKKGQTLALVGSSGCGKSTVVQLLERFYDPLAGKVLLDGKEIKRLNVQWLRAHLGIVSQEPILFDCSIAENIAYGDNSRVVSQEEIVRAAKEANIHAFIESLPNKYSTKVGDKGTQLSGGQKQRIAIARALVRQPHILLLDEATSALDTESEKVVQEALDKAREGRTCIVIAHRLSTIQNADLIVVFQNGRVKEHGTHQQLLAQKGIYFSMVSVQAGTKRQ
Chain of MATE2K (Q86VL8 1-566 isoform Q86VL8-3): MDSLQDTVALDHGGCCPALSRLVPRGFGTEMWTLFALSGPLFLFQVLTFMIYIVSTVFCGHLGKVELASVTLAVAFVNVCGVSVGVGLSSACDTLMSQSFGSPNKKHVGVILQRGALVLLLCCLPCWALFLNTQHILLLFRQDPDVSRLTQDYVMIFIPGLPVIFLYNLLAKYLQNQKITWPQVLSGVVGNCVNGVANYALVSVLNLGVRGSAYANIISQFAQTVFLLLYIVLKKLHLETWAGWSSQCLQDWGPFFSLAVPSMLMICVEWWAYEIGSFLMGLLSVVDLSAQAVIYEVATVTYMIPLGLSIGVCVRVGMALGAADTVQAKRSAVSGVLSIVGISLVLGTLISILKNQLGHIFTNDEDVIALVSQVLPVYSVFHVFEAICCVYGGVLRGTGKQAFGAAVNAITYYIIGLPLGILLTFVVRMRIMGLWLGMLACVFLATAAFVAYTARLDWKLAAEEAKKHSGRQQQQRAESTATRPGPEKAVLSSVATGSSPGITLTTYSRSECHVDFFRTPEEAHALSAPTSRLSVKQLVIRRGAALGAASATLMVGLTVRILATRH

| Uptake Rate ([1]; cimetidine 100 μM) [pmol/min/10^5 Cells] | Uptake Rate ([1]; control) [pmol/min/10^5 Cells] | Substrate [1] | Uptake Rate ([2]; HEK293-OATP1B1, control) [pmol/min/10^5 Cells] | Uptake Rate ([2]; HEK293-OATP1B1, rifampin 20 μM) [pmol/min/10^5 Cells] | Substrate [2] | Substrate [3] | Papp A→B at 1 h, 4 µM [3, 5] [×10⁻⁶ cm/s] | Papp B→A at 1 h, 4 µM [3, 5] [×10⁻⁶ cm/s] | Papp A→B at 1 h, 4 µM ([3]; pH 7.4, Control) [×10⁻⁶ cm/s] | Papp B→A at 1 h, 4 µM ([3]; pH 7.4, Control) [×10⁻⁶ cm/s] | Uptake Rate ([4]; HEK293-OATP1B3, control) [pmol/min/10^5 Cells] | Uptake Rate ([4]; HEK293-OATP1B3, rifampin 20 μM) [pmol/min/10^5 Cells] | Substrate [4] | Compound | further results |
| --- | --- | --- | --- | --- | --- | --- | --- | --- | --- | --- | --- | --- | --- | --- | --- |
| 72.81 ± 3.33 | 59.19 ± 3.66 | No | 52.79 ± 2.39 | 53.60 ± 3.73 | No | No | 20.7 ± 1.31 | 32 ± 0.94 | 20.3 ± 0.53 | 25.6 ± 1.71 | 44.54 ± 0.74 | 52.67 ± 2.99 | No | Cc1cccc(C)c1CNc1cc(C(=O)N2CCC2)cn2c(C)c(C)nc12 [JP-1366, 1-azetidinyl(8-(((2,6-dimethylphenyl)methyl)amino)-2,3-dimethylimidazo(1,2-a)pyridin-6-yl)methanone] |  |
| 72.81 ± 3.33 | 59.19 ± 3.66 | No | 52.79 ± 2.39 | 53.60 ± 3.73 | No | Yes | 18.5 ± 0.96 | 62.8 ± 5.26 | 6.99 ± 0.6 | 99.3 ± 1.66 | 44.54 ± 0.74 | 52.67 ± 2.99 | No | Cc1cccc(CO)c1CNc1cc(C(=O)N2CCC2)cn2c(C)c(C)nc12 [M1, azetidin-1-yl(8-((2-(hydroxymethyl)-6-methyl-benzyl)amino)-2,3-dimethylimidazo[1,2-a]pyridin-6-yl)methanone] | Fold-Change ([1]; cimetidine 100 μM): 1.4; Fold-Change ([1]; control): 1.1; Fold-Change ([2]; HEK293-OATP1B1, control): 1.0; Fold-Change ([2]; HEK293-OATP1B1, rifampin 20 μM): 1.0; efflux ratio at 1 h, 4 µM [3, 5]: 3.4; efflux ratio at 1 h, 4 µM ([3]; pH 7.4, Control): 14.2; Fold-Change ([4]; HEK293-OATP1B3, control): 0.9; Fold-Change ([4]; HEK293-OATP1B3, rifampin 20 μM): 1.0 |
